Laboratory results published in patent publication US20090124555A1, “USE OF HISTOGRANIN AND HISTOGRANIN-LIKE COMPOUNDS AS INHIBITORS OF P2X7 RECEPTOR FUNCTION AND AS ANTI-ARTHRITIC AGENTS” (priority 2005, published 2009).

Tests used:
[1] = target: T1, P2X7 receptor (Rattus norvegicus, UniProt Q64663); test: ATP-induced membrane permeabilization and pore formation (ethidium bromide uptake) in alveolar macrophages; assay type: cell-based; conditions: for ATP-mediated permeabilization to ethidium bromide / inhibition of ATP-induced pore formation (ethidium bromide uptake): ATP 5 mM; for ATP-mediated permeabilization to ethidium bromide / BzATP-mediated permeabilization to ethidium bromide: pre-treatment with oATP 0.1 mM 2 h or BBG 5×10^−9M 5 min; for BzATP-mediated permeabilization to ethidium bromide / inhibition of BzATP-induced pore formation: BzATP 0.5 mM; for inhibition of ATP-induced pore formation (ethidium bromide uptake): 5 min, compound 10^−9M; for inhibition of ATP-induced pore formation (ethidium bromide uptake) / inhibition of BzATP-induced pore formation: rat alveolar macrophages, FIG. 1A
T1 construct: Alveolar macrophages (AM) were recovered from normal rats by bronchoalveolar lavage; endogenous in cells; host or cells: primary alveolar macrophages from male Wistar rats (bronchoalveolar lavage)
T1 sequence (Q64663 1-595): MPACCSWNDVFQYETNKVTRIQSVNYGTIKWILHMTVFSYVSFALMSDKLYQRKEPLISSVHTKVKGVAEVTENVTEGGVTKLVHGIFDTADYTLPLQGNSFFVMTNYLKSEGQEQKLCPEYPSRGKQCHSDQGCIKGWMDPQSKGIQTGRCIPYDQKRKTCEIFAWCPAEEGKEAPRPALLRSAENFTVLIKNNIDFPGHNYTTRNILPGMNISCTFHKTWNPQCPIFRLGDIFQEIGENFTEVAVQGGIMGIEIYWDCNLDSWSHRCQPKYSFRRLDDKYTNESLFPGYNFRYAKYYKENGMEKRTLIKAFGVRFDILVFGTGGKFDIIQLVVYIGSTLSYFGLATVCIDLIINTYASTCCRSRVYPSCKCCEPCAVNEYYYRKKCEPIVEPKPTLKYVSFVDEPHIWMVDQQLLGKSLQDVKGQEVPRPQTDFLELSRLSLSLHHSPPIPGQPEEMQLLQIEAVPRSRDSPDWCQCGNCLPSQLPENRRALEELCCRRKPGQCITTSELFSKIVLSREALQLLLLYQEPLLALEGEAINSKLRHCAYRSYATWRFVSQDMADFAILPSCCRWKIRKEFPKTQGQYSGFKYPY
Method: Alveolar macrophages (AM) were recovered from normal rats by bronchoalveolar lavage (BAL) as described previously (Lemaire (1991) Am. J. Pathol. 138:487-495). The lungs were lavaged with 7 ml-aliquots of sterile phosphate buffered saline (pH 7.4; Wisent, St. Bruno, QC), and BAL cells were obtained by centrifugation at 200×g at 4° C. for 5 minutes. The cells were resuspended in RPMI 1640 medium (Wisent, St-Bruno, QC) supplemented with 0.5% dialysed fetal bovine serum (Wisent. St-Bruno, QC), 0.005% gentamycin (Schering Canada Inc. Pointe Claire. QC) and 0.8% HEPES (Sigma Chemical Co., St-Louis, MO) which will henceforth be referred to as complete culture medium (CM).
Freshly isolated AM (1×10^5) were incubated in 200 μl complete medium in 96 wells tissue culture plates for 24 h. Following centrifugation, medium was replaced with saline solution containing 125 mM NaCl, 5 mM KCL, 1 mM MgSO4, 1 mM Na2HPO4, 5.5 mM glucose, 5 mM NaHCO3, 1 mM CaCl2 and 20 mM Hepes, pH 7.6. Ethidium bromide was added to a final concentration of 20 μM and AM were stimulated with ATP (5 mM, Sigma), 3′-O-(4-benzoylbenzoyl ATP (BzATP) (0.5 mM, Molecular Probes) or uridine 5′-triphosphate (UTP) (Sigma), at 37° C. for 5 minutes. In some experiments, cells were pre-treated with oxidized ATP (oATP, 0.1 mM, Sigma) for 2 h or Brilliant Blue G (BBG, 5×10^−9M, Sigma) for 5 minutes, or HN compounds for 5 minutes before ATP stimulation. After ATP stimulation, the plate was centrifuged (200×g, 1 minute), culture supernatants were replaced with fresh buffer and the fluorescence was analyzed using a Zeiss Axiovert S1100 TV inverted microscope equipped with a rhodamine filter and a 32× objective. Images were captured and analysed with the Northern Eclipse image analysis software. Data are expressed as percentage of cells that become permeabilized to ethidium bromide.

[2] = target: T1, P2X7 receptor; test: ATP-induced extracellular release of IL-1.beta and IL-1.alpha from macrophages in vitro (ELISA); assay type: cell-based
Method: Alveolar macrophages (1×10^6 cells/ml) were incubated in complete medium in 96 wells tissue culture plates overnight at 37° C. in 5% CO2. The medium was changed for fresh medium and cells were incubated with Lipopolysaccharide (LPS. 1 μg/ml) (Sigma) for 3 h followed by ATP (5 mM) or 3′-0-(4-benzoylbenzoyl ATP (BZATP) (0.5 mM. Molecular Robes) for 1 h in the presence and absence of HN compounds (10^−9M and 10^−8M) or Brilliant Blue G (BBG, 5×10^−9 M, Sigma). In some experiments, cells were pre-treated with oxidized ATP (oATP, 100 μM, Sigma) for 2 h before LPS and ATP or BzATP stimulation. In other experiments, cells were stimulated with LPS (1 μg/ml) for 3 h and subsequently with Nigericin (20 μM) for 30 min in the presence and absence of HN compounds (10^−9, 10^−8M). Controls were incubated with LPS only. After incubation, cell culture media were collected, centrifuged in a microfuge (Eppendorf) and the cell-free supernatants were collected and stored at −80° C. for cytokine measurement. Levels of immunoreactive IL-1.beta and IL-1.alpha were assayed using ELISA (R&D Systems, Minneapolis, Minn. and Biosource (Medicorp), Camarillo, Calif. respectively) performed according to the manufacturer's protocol.

[3] = target: T2, P2X7 receptor (Mus musculus, UniProt Q9Z1M0); test: ATP-induced extracellular release of IL-1.beta, IL-1.alpha and IL-6 in vivo (peritoneal lavage of LPS-primed mice); conditions: 0.1 mg and 0.3 mg i.p. 15 min before ATP, FIG. 6B
T2 construct: from tissue; host or cells: living mice; peritoneal cavity (lavage fluid analysed)
T2 sequence (Q9Z1M0 1-595): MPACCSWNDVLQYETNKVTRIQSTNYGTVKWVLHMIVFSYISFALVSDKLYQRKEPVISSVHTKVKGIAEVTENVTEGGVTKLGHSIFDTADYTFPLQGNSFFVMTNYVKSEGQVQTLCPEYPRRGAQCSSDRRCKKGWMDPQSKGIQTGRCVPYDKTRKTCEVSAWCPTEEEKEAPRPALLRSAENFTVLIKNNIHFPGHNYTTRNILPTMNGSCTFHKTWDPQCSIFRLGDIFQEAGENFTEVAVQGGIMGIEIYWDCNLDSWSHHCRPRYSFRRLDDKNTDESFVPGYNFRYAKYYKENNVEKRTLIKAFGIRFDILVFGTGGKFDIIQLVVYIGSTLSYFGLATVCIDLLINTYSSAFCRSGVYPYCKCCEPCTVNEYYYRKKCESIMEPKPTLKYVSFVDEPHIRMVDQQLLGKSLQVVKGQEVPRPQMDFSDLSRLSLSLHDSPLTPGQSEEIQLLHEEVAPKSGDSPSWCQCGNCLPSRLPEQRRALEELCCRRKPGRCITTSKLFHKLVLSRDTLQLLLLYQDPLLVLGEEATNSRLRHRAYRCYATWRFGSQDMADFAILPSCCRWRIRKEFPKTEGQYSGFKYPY
Method: Groups of mice were injected intraperitoneally (i.p.) with 50 μg of LPS. Two hours after this LPS injection, mice were injected i.p. with either PBS or ATP (5 mM, adjusted to pH 7), or with HN compounds (0.1 mg and 0.3 mg) 15 minutes before ATP injection. Mice were sacrificed 30 minutes (IL-1.beta and IL-1.alpha) or 120 minutes (IL-6) after the ATP or PBS injection and peritoneal cavities were lavaged each with 3 ml PBS. Samples of peritoneal lavages were centrifuged, cell-free supernatants were collected and tested for the presence of IL-1.beta, IL-1.alpha and IL-6 using ELISA (R&D Systems, Minneapolis, Minn., and Biosource, Camarillo, Calif., respectively).

[4] = target: T1, P2X7 receptor; test: ATP-induced apoptosis, cell death ELISA of cytoplasmic oligonucleosomal DNA; assay type: cell-based; conditions: ATP 5 mM 30 min, read after 24 h; compound 10^−9M
Method: This assay using mouse monoclonal antibodies directed against DNA and histones respectively, allows the quantitative determination of mono- and oligonucleosomes in the cytoplasmic fraction of cell lysates prepared from macrophages (Li et al. (1997) Toxicol. Appl. Pharmacol. 145:331-339). Alveolar macrophages (1×10^5) were incubated in 200 μl complete medium in 96 wells tissue culture plates with ATP (5 mM) in the presence and absence of HN compounds for 30 minutes and media was replaced with fresh culture media. After 24 h, the plate was centrifuged, the culture supernatants removed and macrophages were lysed in lysis buffer for 30 min on ice and centrifuged at 14,000 rpm for 15 min at 4° C. Cytoplasmic oligonucleosomal DNA was measured in cell supernatants by ELISA.

## CCOc1ccc(Nc2ccc(/C(=C3C=C/C(=[N+](/CC)Cc4cccc(S(=O)(=O)[O-])c4)C=C/3C)c3ccc(N(CC)Cc4cccc(S(=O)(=O)[O-])c4)cc3C)cc2)cc1.[Na+] [Brilliant Blue G, reference compound]
[1]
  ATP-mediated permeabilization to ethidium bromide: blocked
  BzATP-mediated permeabilization to ethidium bromide: blocked
[2]; LPS-primed macrophages, BzATP 0.5 mM, BBG 5×10^−9M, FIG. 3A
  BzATP-induced IL-1.beta release: significantly reduced

## N=C(N)NCCC[C@@H](Nc1ccccc1NC(=O)Cc1ccc(O)cc1)C(N)=O [C-12, N-5-guanidinopentanamide-(2R)-yl-2-N-(p-hydroxphenylacetyl) phenylenediamine]
[1]
  inhibition of ATP-induced pore formation (ethidium bromide uptake): inhibited significantly
[3]
  IL-1.beta in peritoneal lavage in response to ATP, various HN compounds: reduced levels

## N=C(N)NCCC[C@@H](Nc1ccc(C(=O)c2ccc(Cl)cc2)cc1NC(=O)Cc1ccc(O)cc1)C(N)=O [C-13, N-5-guanidinopentanamide-(2R)-yl-2-N-(p-hydroxyphenylacetyl)-4-(p-chlorobenzoyl)-phenylenediamine]
[3]
  IL-1.beta in peritoneal lavage in response to ATP, various HN compounds: reduced levels

## N=C(N)NCCC[C@H](C(N)=O)n1c(Cc2ccc(O)cc2)nc2cc(C(=O)O)ccc21 [C-15, N-5-guanidinopentanamide-(2R)-yl 2-(p-hydroxylbenzyl)5-carboxybenzimidazole]
[1]; 10^−12 M to 10^−6 M, dose-dependent manner, FIG. 1B
  inhibition of ATP-induced pore formation, concentration-response: inhibited
[1]
  inhibition of ATP-induced pore formation (ethidium bromide uptake): inhibited significantly
  inhibition of BzATP-induced pore formation: inhibit
[4]
  cytoplasmic oligonucleosomal DNA in response to ATP: inhibited
[2]; LPS 3 h then ATP 5 mM 1 h, compound 10^−9 M, FIG. 3A
  inhibition of extracellular IL-1.beta release, ATP stimulation: significant inhibition
[2]; LPS 3 h then BzATP 0.5 mM 1 h, compound 10^−9 M, FIG. 3A
  inhibition of extracellular IL-1.beta release, BzATP stimulation: significant inhibition
[2]; LPS-primed rat alveolar macrophages, ATP 5 mM, FIG. 3B, read-out: half-maximal response, inhibition of ATP-induced IL-1.beta release
  IC50: ~0.1 nM
[2]; inhibition already seen at 10^−12M, FIG. 3B
  inhibition of ATP-induced IL-1.beta release, concentration-response: dose-dependent
[3]
  IL-1.beta in peritoneal lavage in response to ATP, various HN compounds: reduced levels

## Nc1ncnc2c1ncn2[C@@H](C=O)O[C@@H](C=O)COP(=O)(O)OP(=O)(O)OP(=O)(O)O [oATP, oxidized ATP, reference compound]
[1]
  ATP-mediated permeabilization to ethidium bromide: blocked
  BzATP-mediated permeabilization to ethidium bromide: blocked
[2]; LPS-primed macrophages, ATP 5 mM, oATP 100 μM pre-treatment 2 h, FIG. 3A
  ATP-induced IL-1.beta release: significantly reduced

## Cyclic (-Gly-(p-chloro)Phe-Tyr-D-Arg-) (GFYR; HELM PEPTIDE1{G.[O=C([C@H](Cc1ccc(Cl)cc1)N[*:1])[*:2]].Y.[dR]}$PEPTIDE1,PEPTIDE1,1:R1-4:R2$$$V2.0; SMILES N=C(N)NCCC[C@H]1NC(=O)[C@H](Cc2ccc(O)cc2)NC(=O)[C@H](Cc2ccc(Cl)cc2)NC(=O)CNC1=O) [C-10]
[1]
  inhibition of ATP-induced pore formation (ethidium bromide uptake): inhibited significantly
  inhibition of BzATP-induced pore formation: inhibit
[3]
  IL-1.beta in peritoneal lavage in response to ATP, various HN compounds: reduced levels

## Cyclic (-Gly-D-Gln-Tyr-D-Arg-) (GQYR; HELM PEPTIDE1{G.[dQ].Y.[dR]}$PEPTIDE1,PEPTIDE1,1:R1-4:R2$$$V2.0; SMILES N=C(N)NCCC[C@H]1NC(=O)[C@H](Cc2ccc(O)cc2)NC(=O)[C@@H](CCC(N)=O)NC(=O)CNC1=O) [C-8]
[1]
  inhibition of ATP-induced pore formation (ethidium bromide uptake): inhibited significantly

## Cyclic (-Gly-Gln-Tyr-D-Arg-) (GQYR; HELM PEPTIDE1{G.Q.Y.[dR]}$PEPTIDE1,PEPTIDE1,1:R1-4:R2$$$V2.0; SMILES N=C(N)NCCC[C@H]1NC(=O)[C@H](Cc2ccc(O)cc2)NC(=O)[C@H](CCC(N)=O)NC(=O)CNC1=O) [C-7]
[1]
  inhibition of ATP-induced pore formation (ethidium bromide uptake): inhibited significantly

## H-Gly-Gln-Gly-Arg-Thr-Leu-Tyr-Gly-Phe-COOH (H-GQGRTLYGF-OH) [C-3]
[4]
  cytoplasmic oligonucleosomal DNA in response to ATP: inhibited

## H-Val-Val-Tyr-Ala-Leu-Lys-Arg-Gln-Gly-[S-(3nitro-2-pyridine sulfenyl)]Cys-Thr-Leu-Tyr-Gly-Phe- [C-5]
[3]
  IL-1.beta in peritoneal lavage in response to ATP, various HN compounds: reduced levels
